Experiments:
MDCK cells = assay type: cell-based; details: 24 h, Alamar blue
Method: acid group of vancomycin to yield the compounds 1-10. All the derivatives of vancomycin were purified by reverse phase HPLC to about 90 % purity with 65-75 % yield and characterized by HR-MS and 1H-NMR.
Figure S1. Cytotoxicity of VanQAmC10 against MDCK cells. The CC50 (defined as the concentration at which the viability of compound treated cells reduced to 50%) was greater […]
(1 picture or pasted object on this page, not shown here)
50 μL of serially diluted compound was added into 96 well microtiter plates. Freshly drawn, heparanized human blood was centrifuged down to obtain the erythrocytes and re-suspended to 5 vol % in PBS (pH 7.4). […] 100 μL of the supernatant from each well were transferred into fresh microtiter plates, and A540 was measured.
% haemolysis = (A - A0)/(Atotal -A0) × 100, where A is the absorbance of the test well, A 0 the absorbance of the negative controls (without compound), and A total the absorbance of 100 % hemolysis wells (with Triton X -100), all at 540 nm. […]
2 h post incubation with dye, the absorbance was measured at 570 nm using 600 nm as […]
The bactericidal activity of the compounds was evaluated with the time kill kinetics assay.
MRSA ATCC 33591 cells were cultured in nutrient media at 37°C for 6 h. […] The bacterial colonies were counted and results are represented in logarithmic scale, i.e. log10 (CFU/mL). […]

MRSA = experiment: Resistance study, serial passaging at sub-MIC; assay type: cell-based, S. aureus; details: after 20 passages at sub-MIC
Method: Having observed the multiple mechanisms of VanQAmC10, the potential as a preclinical candidate was examined. […] The frequency of resistance for both vancomycin and VanQAmC10 against MRSA was <10^−8 indicating the absence of spontaneous mutants. […]
from 10 μg/mL. The bacteria with compounds and untreated control were incubated for 18 h at 37 ̊C under shaking and OD600 was measured.
Microscopy of ΔamiAC MG1655 E. coli
ΔamiAC MG1655 was cultured overnight in LB media at 37 ̊C. Cells were then inoculated in LB media at 1:100 dilution ratio and made to grow till O.D600 0.1. The cells were then treated with 4 μg/mL concentration of vancomycin and VanQAmC10 or left untreated for 2 h. […]
MRSA ATCC 33591 was grown to mid-log phase at 37 °C. […] The viable bacteria were then counted after 48 h incubation at 37 °C. […]
Antagonization of antibacterial activity of AAV-qC10 was determined by addition of 500 μM N,N՛-diacetyl–L-Lys–D-Ala–D-Ala or 100 μg/mL of lipoteichoic acid to serial dilutions of the test compound. The MIC was then determined against MRSA by measuring the OD600 18-24 […]
Vancomycin was chosen as control antibiotic for MRSA. The initial MIC values of VanQAmC10, vancomycin were determined against the respective bacteria. […]
The doses for administration, were given modified OECD guidelines. LD50 was determined using Spearman-Karber method. […]

VRSA = tested on: VRSA; parameters: method as in PMID 32195571; details: strain not specified, Fig. 1 legend; MIC against VRSA previously reported; cited from earlier work

## CCCCCCCCCCNC(=O)C[N+](C)(C)CCCNC(=O)C1NC(=O)C2NC(=O)C(NC(=O)C3NC(=O)C(CC(N)=O)NC(=O)C(NC(=O)C(CC(C)C)NC)C(O)c4ccc(c(Cl)c4)Oc4cc3cc(c4OC3OC(CO)C(O)C(O)C3OC3CC(C)(N)C(O)C(C)O3)Oc3ccc(cc3Cl)C2O)c2ccc(O)c(c2)-c2c(O)cc(O)cc21 (stereo not shown) [VanQAmC10 (8)]
MDCK cells
  CC50: > 64 µM
MRSA
  increase in MIC (resistance development): lack of resistance development
VRSA
  MIC against VRSA: 1.6 µM

## CN[C@H](CC(C)C)C(=O)N[C@H]1C(=O)N[C@@H](CC(N)=O)C(=O)N[C@H]2C(=O)N[C@H]3C(=O)N[C@H](C(=O)N[C@H](C(=O)O)c4cc(O)cc(O)c4-c4cc3ccc4O)[C@H](O)c3ccc(c(Cl)c3)Oc3cc2cc(c3O[C@@H]2O[C@H](CO)[C@@H](O)[C@H](O)[C@H]2O[C@H]2C[C@](C)(N)[C@H](O)[C@H](C)O2)Oc2ccc(cc2Cl)[C@H]1O [Vancomycin, reference compound]
MRSA
  increase in MIC (resistance development): 2 fold

Source: PMC9977398, “Next-generation membrane-active glycopeptide antibiotics that also inhibit bacterial cell division” (Chemical Science, 2023)
